Source: paper PMC11748363, “Antimicrobial and Antiproliferative Properties of 2‐Phenyl‐N‐(Pyridin‐2‐yl)acetamides” (Chemical Biology & Drug Design, 2025)
Converted amounts (≈) assume the structure as drawn. Where two headings read alike, the source gives them in different places.

Columns and labels:
[1] = tested on: Mycobacterium tuberculosis H37Ra; set-up: method as in Nawrot et al. 2021; conditions: previously published N‐pyridinyl benzamides; ref Nawrot et al. 2021; cited from earlier work
[2] = tested on: Mycobacterium tuberculosis H37Ra; experiment: Antimycobacterial microdilution broth MIC (resazurin), Mtb H37Ra; type: cell-based; conditions: for MIC: Mycobacterium tuberculosis, H37RA, read-out: MIC Mtb H37Ra
[3] = tested on: Mycolicibacterium smegmatis DSM 43465; experiment: Antimycobacterial microdilution broth MIC (resazurin), M. smegmatis; type: cell-based; conditions: DSM43465, read-out: MIC M. smegmatis
[4] = tested on: Mycolicibacterium aurum DSM 43999; experiment: Antimycobacterial microdilution broth MIC (resazurin), M. aurum; type: cell-based; conditions: DSM43999, read-out: MIC M. aurum
[5] = tested on: Mycobacterium tuberculosis H37Rv; experiment: Microplate Alamar Blue Assay MIC, Mtb H37Rv; type: cell-based; conditions: Mycobacterium tuberculosis, H37RV
[6] = tested on: M. kansasii CNCTC My 235/80; experiment: Microplate Alamar Blue Assay MIC, M. kansasii; type: cell-based
[7] = tested on: M. avium ssp. avium CNCTC My 80/72; experiment: Microplate Alamar Blue Assay MIC, M. avium; type: cell-based
[8] = tested on: HepG2 cell line; experiment: Cytotoxicity CellTiter 96, HepG2; type: cell-based, human; conditions: Homo sapiens, HepG2, 24 h, 24 h incubation; ^c compound precipitated in the testing medium; ^d over the limit of tested concentrations
Protocol: The cytotoxicity of final compounds was determined in human hepatocellular carcinoma cell line HepG2.
Cytotoxicity determination
Human hepatocellular liver carcinoma cell line HepG2 purchased from Health Protection Agency Culture Collections (ECACC, Salisbury, UK) was cultured in MEM (Minimum Essentials Eagle Medium, Sigma–Aldrich) supplemented with 10% fetal bovine serum (PAA Laboratories, Pasching, Austria), 1% L-glutamine solution (Sigma–Aldrich) and non-essential amino acid solution (Sigma–Aldrich) in a humidified atmosphere containing 5% CO2 at 37 °C. For subculturing, the cells were harvested after trypsin/EDTA (Sigma–Aldrich) treatment at 37 °C. To evaluate cytotoxicity, the cells treated with the tested substances were used as experimental groups whereas untreated HepG2 cells served as controls. The cells were seeded in density 10,000 cells per well in a 96 well plate. The next day the cells were treated with each of the tested substances dissolved in DMSO. The tested substances were
in triplicates according to their solubility. Simultaneously, the controls representing 100% cell viability, 0% cell viability (the cells treated with 10% DMSO), no cell control and vehiculum controls were also
the reagent from the kit CellTiter 96 AQueous One Solution Cell Proliferation Assay (CellTiter 96; PROMEGA, Fitchburg, USA) was added. After 2h incubation at 37 °C, absorbance of samples was recorded at 490 nm (TECAN, Infinita M200, Austria). A standard toxicological parameter IC50 was calculated by nonlinear regression from a semilogarithmic plot of incubation concentration versus percentage of absorbance relative to untre ated controls using GraphPad Prism 8 software.

[9] = tested on: Staphylococcus aureus CCM 4223, ATCC 29213; experiment: Antibacterial microdilution broth MIC, SA; type: cell-based; conditions: for MIC: Staphylococcus aureus
[10] = tested on: Staphylococcus aureus subsp. aureus CCM 4750, ATCC 43300 (MRSA); experiment: Antibacterial microdilution broth MIC, MRSA; type: cell-based; conditions: for MIC: Staphylococcus aureus
[11] = tested on: Staphylococcus epidermidis CCM 4418, ATCC 12228; experiment: Antibacterial microdilution broth MIC, SE; type: cell-based
[12] = tested on: Enterococcus faecalis CCM 4224, ATCC 29212; experiment: Antibacterial microdilution broth MIC, EF; type: cell-based
[13] = tested on: Escherichia coli CCM 3954, ATCC 25922; experiment: Antibacterial microdilution broth MIC, EC; type: cell-based
[14] = tested on: Acinetobacter baumannii DSM 30007, ATCC 19606; experiment: Antibacterial microdilution broth MIC, ACI; type: cell-based
[15] = tested on: Pseudomonas aeruginosa CCM 3955, ATCC 27853; experiment: Antibacterial microdilution broth MIC, PA; type: cell-based
[16] = tested on: Candida albicans CCM 8320, ATCC 24433; experiment: Antifungal microdilution broth MIC, CA
[17] = tested on: Candida krusei CCM 8271, ATCC 6258; experiment: Antifungal microdilution broth MIC, CK; conditions: Pichia kudriavzevii
[18] = tested on: Candida parapsilosis CCM 8260, ATCC 22019; experiment: Antifungal microdilution broth MIC, CP; conditions: Lodderomyces parapsilosis
[19] = tested on: Candida tropicalis CCM 8264, ATCC 750; experiment: Antifungal microdilution broth MIC, CT
[20] = tested on: Aspergillus fumigatus ATCC 204305; experiment: Antifungal microdilution broth MIC, AF
[21] = tested on: Lichtheimia corymbifera CCM 8077; experiment: Antifungal microdilution broth MIC, LC
[22] = tested on: Trichophyton interdigitale CCM 8377, ATCC 9533; experiment: Antifungal microdilution broth MIC, TI; conditions: for MIC: Trichophyton interdigitale
[23] = tested on: Aspergillus flavus CCM 8363; experiment: Antifungal microdilution broth MIC, AFla
[24] = tested on: Klebsiella pneumoniae CCM 4415, ATCC 10031; experiment: Antibacterial microdilution broth MIC, KP
[25] = ATCC204305, 24 h, read-out: MIC AF 24h
[26] = ATCC204305, 48 h, read-out: MIC AF 48h
[27] = CCM8077, 24 h, read-out: MIC LC 24h
[28] = CCM8077, 48 h, read-out: MIC LC 48h
[29] = CCM8363, 24 h, read-out: MIC AFla 24h
[30] = CCM8363, 48 h, read-out: MIC AFla 48h

COc1cccc(C(=O)Nc2ccccn2)c1 [C00003 R1=H,R2=3-OMe]
MIC Mtb H37Ra (μg/mL), previously published compounds [1]: 62.5 µg/mL (≈ 274 µM)

COc1cccc(C(=O)Nc2ccc(Cl)cn2)c1 [C00003 R1=5-Cl,R2=3-OMe]
MIC Mtb H37Ra (μg/mL), previously published compounds [1]: 62.5 µg/mL (≈ 238 µM)

O=C(Nc1ccc(Cl)cn1)c1cccc(Cl)c1 [C00003 R1=5-Cl,R2=3-Cl]
MIC Mtb H37Ra (μg/mL), previously published compounds [1]: 31.25 µg/mL (≈ 117 µM)

O=C(Cc1ccc(Cl)cc1)Nc1cccc(Cl)n1 [Compound 21]
MIC ([2]; Calculated from MIC (μg/mL)): 27.8 µM | MIC [2]: 7.81 µg/mL | SI (selectivity index) ([2]; SI = HepG2 IC50 (μM)/MIC MtbH37Ra (μM), calculated for compounds with MIC ≤ 31.25 μg/mL): 2.9 | MIC [3]: 15.6 µg/mL (≈ 55.6 µM) | MIC [4]: 31.2 µg/mL (≈ 111 µM) | MIC [5]: 6.25 µg/mL (≈ 22.2 µM) | MIC M. kansasii [6]: additional activity | MIC ([6]; Mycobacterium kansasii): 25 µg/mL (≈ 88.9 µM) | MIC M. avium [7]: additional activity | MIC ([7]; Mycobacterium avium): 6.25 µg/mL (≈ 22.2 µM) | IC50 [8]: 81.5 µM | MIC ([9]; 24 h, read-out: MIC SA 24h): 250 µM (≈ 70.3 µg/mL) | MIC ([9]; 48 h, read-out: MIC SA 48h): > 500 µM | Antibacterial activity on SA ([9]; Table 2): 250 μM on SA, 250 μM on MRSA | MIC ([10]; 24 h, read-out: MIC MRSA 24h): 250 µM (≈ 70.3 µg/mL) | MIC ([10]; 48 h, read-out: MIC MRSA 48h): 500 µM (≈ 141 µg/mL) | Antibacterial activity on MRSA ([10]; Table 2): 250 μM on SA, 250 μM on MRSA | MIC ([11]; 24 h, read-out: MIC SE 24h): > 500 µM | MIC ([11]; 48 h, read-out: MIC SE 48h): > 500 µM | MIC ([12]; 24 h, read-out: MIC EF 24h): > 500 µM | MIC ([12]; 48 h, read-out: MIC EF 48h): > 500 µM | MIC ([13]; 24 h, read-out: MIC EC 24h): > 500 µM | MIC ([13]; 48 h, read-out: MIC EC 48h): > 500 µM | MIC ([14]; 24 h, read-out: MIC ACI 24h): > 500 µM | MIC ([14]; 48 h, read-out: MIC ACI 48h): > 500 µM | MIC ([15]; 24 h, read-out: MIC PA 24h): > 500 µM | MIC ([15]; 48 h, read-out: MIC PA 48h): > 500 µM | MIC ([16]; 24 h, read-out: MIC CA 24h): > 500 µM | MIC ([16]; 48 h, read-out: MIC CA 48h): > 500 µM | MIC ([17]; 24 h, read-out: MIC CK 24h): > 500 µM | MIC ([17]; 48 h, read-out: MIC CK 48h): > 500 µM | MIC ([18]; 24 h, read-out: MIC CP 24h): > 500 µM | MIC ([18]; 48 h, read-out: MIC CP 48h): > 500 µM | MIC ([19]; 24 h, read-out: MIC CT 24h): > 500 µM | MIC ([19]; 48 h, read-out: MIC CT 48h): > 500 µM | MIC [20, 25]: > 500 µM | MIC [20, 26]: > 500 µM | MIC [21, 27]: > 500 µM | MIC [21, 28]: > 500 µM | Antifungal activity on TI ([22]; Table 2): 62.5 μM on TI | MIC ([22]; 72 h, read-out: MIC TI 72h): 62.5 µM (≈ 17.6 µg/mL) | MIC ([22]; 120 h, read-out: MIC TI 120h): 125 µM (≈ 35.1 µg/mL) | MIC [23, 29]: > 500 µM | MIC [23, 30]: > 500 µM | MIC KP 24h [24]: > 500 µM | MIC KP 48h [24]: > 500 µM

O=C(Nc1cccc(Cl)n1)c1cccc(C(F)(F)F)c1 [C00003 R1=6-Cl,R2=3-CF3]
MIC Mtb H37Ra (μg/mL), previously published compounds [1]: 7.81 µg/mL (≈ 26 µM)

O=C(Nc1ccccn1)c1cccc(C(F)(F)F)c1 [C00003 R1=H,R2=3-CF3]
MIC Mtb H37Ra (μg/mL), previously published compounds [1]: 31.25 µg/mL (≈ 117 µM)

O=C(Nc1ccc(Cl)cn1)c1ccc(Cl)cc1 [C00003 R1=5-Cl,R2=4-Cl]
MIC Mtb H37Ra (μg/mL), previously published compounds [1]: > 500 µg/mL

COc1ccc(C(=O)Nc2cccc(Cl)n2)cc1 [C00003 R1=6-Cl,R2=4-OMe]
MIC Mtb H37Ra (μg/mL), previously published compounds [1]: 15.625 µg/mL (≈ 59.5 µM)

COc1ccccc1C(=O)Nc1cccc(Cl)n1 [C00003 R1=6-Cl,R2=2-OMe]
MIC Mtb H37Ra (μg/mL), previously published compounds [1]: > 500 µg/mL

O=C(Nc1ccccn1)c1cccc(Cl)c1 [C00003 R1=H,R2=3-Cl]
MIC Mtb H37Ra (μg/mL), previously published compounds [1]: 62.5 µg/mL (≈ 269 µM)

COc1ccccc1C(=O)Nc1ccccn1 [C00003 R1=H,R2=2-OMe]
MIC Mtb H37Ra (μg/mL), previously published compounds [1]: 31.25 µg/mL (≈ 137 µM)

O=C(Nc1cccc(Cl)n1)c1ccccc1 [C00003 R1=6-Cl,R2=H]
MIC Mtb H37Ra (μg/mL), previously published compounds [1]: 125 µg/mL (≈ 537 µM)

O=C(Nc1ccccn1)c1ccccc1 [C00003 R1=H,R2=H]
MIC Mtb H37Ra (μg/mL), previously published compounds [1]: 250 µg/mL (≈ 1260 µM)

COc1ccc(CC(=O)Nc2ccccn2)cc1 [Compound 10, 2-(4-methoxyphenyl)-N-(pyridin-2-yl)acetamide]
MIC ([2]; Calculated from MIC (μg/mL)): 516 µM | MIC [2]: 125 µg/mL | MIC [3]: 62.5 µg/mL (≈ 258 µM) | MIC [4]: 250 µg/mL (≈ 1030 µM) | IC50 [8]: > 1000 µM | MIC ([9]; 24 h, read-out: MIC SA 24h): > 500 µM | MIC ([9]; 48 h, read-out: MIC SA 48h): > 500 µM | MIC ([10]; 24 h, read-out: MIC MRSA 24h): > 500 µM | MIC ([10]; 48 h, read-out: MIC MRSA 48h): > 500 µM | MIC ([11]; 24 h, read-out: MIC SE 24h): 500 µM (≈ 121 µg/mL) | MIC ([11]; 48 h, read-out: MIC SE 48h): 500 µM (≈ 121 µg/mL) | MIC ([12]; 24 h, read-out: MIC EF 24h): > 500 µM | MIC ([12]; 48 h, read-out: MIC EF 48h): > 500 µM | MIC ([13]; 24 h, read-out: MIC EC 24h): > 500 µM | MIC ([13]; 48 h, read-out: MIC EC 48h): > 500 µM | MIC ([14]; 24 h, read-out: MIC ACI 24h): > 500 µM | MIC ([14]; 48 h, read-out: MIC ACI 48h): > 500 µM | MIC ([15]; 24 h, read-out: MIC PA 24h): > 500 µM | MIC ([15]; 48 h, read-out: MIC PA 48h): > 500 µM | MIC ([16]; 24 h, read-out: MIC CA 24h): > 500 µM | MIC ([16]; 48 h, read-out: MIC CA 48h): > 500 µM | MIC ([17]; 24 h, read-out: MIC CK 24h): 500 µM (≈ 121 µg/mL) | MIC ([17]; 48 h, read-out: MIC CK 48h): 500 µM (≈ 121 µg/mL) | MIC ([18]; 24 h, read-out: MIC CP 24h): > 500 µM | MIC ([18]; 48 h, read-out: MIC CP 48h): > 500 µM | MIC ([19]; 24 h, read-out: MIC CT 24h): > 500 µM | MIC ([19]; 48 h, read-out: MIC CT 48h): > 500 µM | MIC [20, 25]: > 500 µM | MIC [20, 26]: > 500 µM | MIC [21, 27]: > 500 µM | MIC [21, 28]: > 500 µM | MIC ([22]; 72 h, read-out: MIC TI 72h): 500 µM (≈ 121 µg/mL) | MIC ([22]; 120 h, read-out: MIC TI 120h): 500 µM (≈ 121 µg/mL) | MIC [23, 29]: > 500 µM | MIC [23, 30]: > 500 µM | MIC KP 24h [24]: > 500 µM | MIC KP 48h [24]: > 500 µM
